Measured values: patent US8119640B2, “Hedgehog pathway antagonists methods of use” (The Board of Trustees of the Leland Stanford Junior …, priority 2008, dated 2012)
Entries after “also recorded” stand apart in the source; their conditions may differ. Like-named read-outs stand apart in the source and are kept apart here.

What was measured:
Assay type in all cases: cell-based
C3H10T(1/2) cells = test: C3H10T(1/2) assay for Hh pathway activation (alkaline phosphatase); details: Mus musculus
Description: C3H10T(1/2) assay for Hh pathway activation. C3H10T(1/2) cells (ATCC) were plated into 96-well plates using DMEM containing 10% FBS, 100 U/mL penicillin, 0.1 mg/mL streptomycin, 5% Shh-N-conditioned medium, and various concentrations of the Hh pathway inhibitors. After approximately 40 h, the cells were washed with PBS and lysed in 50 μL of buffer containing 50 mM Tris-HCl, pH 9.5, 150 mM NaCl, 5 mM MgCl2, and 1% Triton X-100. Alkaline phosphatase activities in the cell lysates were quantified by adding 10 μL of the lysate to 50 μL of CDP-Star chemiluminescence reagent (Perkin Elmer) and measuring the resulting chemiluminescence on a Veritas microplate luminometer.

Gli2 = target: T1, Gli2 (Mus musculus, UniProt Q0VGT2); test: Hh pathway activation mediated by overexpression of Gli2; details: for Inhibition of Hh pathway activity induced by Gli2 overexpression: NIH-3T3 cells, Gli-dependent firefly luciferase; for IC50: NIH-3T3 cells overexpressing Gli2, read-out: IC50 (uM) Gli2 Transfected
T1 construct: expressed in transfected cells; host or cells: NIH-3T3
Description: Hh pathway activation mediated by the overexpression of Gli, Gli2, Gli2αPKA, or Gli2αGSK. […] The cells were co-transfected the following day with 220 ng/well pcDNA-derived Gli1, Gli2, or Gli2 phosphosite mutant expression vectors and 80 ng/well of a 1:15 mixture of phRLTK (Promega) and 8XGIiBS-FL. After transfection, cells were grown to confluence (approximately 48 h). The cell were then incubated for an additional 28-32 h in DMEM containing 0.5% CS, 100 U/mL penicillin, 0.1 mg/mL streptomycin, and either DMSO, 50 μM forskolin, 50 μM LY294002, or various concentrations of the HPIs. Firefly and Renilla luciferase activities were measured using a dual luciferase kit and a Veritas microplate luminometer.

Hh pathway = test: Su(fu)-/- fibroblasts assay for Hh pathway activation; details: for % Inhibition Su(fu)-/- MEFs: Gli-dependent firefly luciferase, 15 μM HPI-1, 20 μM HPI-2, 30 μM HPI-3, 30 μM HPI-4; for Toxicity noted in Su(fu)-/- MEFs: printed instead of % inhibition
Description: Su(fu)^−/− fibroblasts assay for Hh pathway activation. […] After 24 h, the cells were transfected with Fugene HD (Roche), 8xGliBS-FL (95 ng/well), phRLSV40 (5 ng/well; Promega), and pEGFP-C1 (300 ng/well as a carrier; Clontech) according to the manufacturer's protocols. […] The resulting firefly and Renilla luciferase activities were measured using a dual luciferase kit and Veritas microplate luminometer.

NIH-3T3 cells = test: Microtubule cytoskeleton staining of HPI-treated NIH-3T3 cells; details: tubulin antibody staining
Description: Immunostaining of FLAG-Gli lines and NIH-3T3 cells. The FLAG-Gli1-expressing or FLAG-Gli2-expressing clonal cell lines were seeded into 24-well plates (80,000 cells/well) containing poly-D-lysine-coated 12-mm glass coverslips. […] The cells were subsequently fixed in 4% paraformaldehyde for 10 min at room temperature followed by treatment with methanol at −20° C. for 2 to 5 min. The cells were washed with PBS, permeabilized with 0.2% Triton X-100 for 2 to 5 min, and then blocked with PBS containing 2% BSA for 3 h at room temperature. The coverslips were then treated with mouse anti-FLAG M2 antibody (Sigma; 1:1,000 dilution in blocking buffer) and rabbit anti-Arl13b (10) (1:1,000 dilution in blocking buffer) for 3 h at room temperature and washed 3×5 min with PBS. The coverslips were incubated next with Alexa Fluor 594-conjugated goat anti-mouse IgG and Alexa Fluor 488-conjugated donkey anti-rabbit IgG antibodies (Invitrogen; 1:1,000 dilutions in blocking buffer) for 2 h at room temperature. After washes with PBS and a 5-min incubation with 4,6-diamidino-2-phenylindole (DAPI), the samples were mounted using Prolong Gold (Invitrogen) and imaged with an upright Leica DM4500B compound microscope. In order to quantify ciliary Gli2 localization, a circular region with diameter equal to the average width of cilia as determined by the anti-Arl13b antibody staining was manually placed at the distal end of each cilium. Regions were transferred from the anti-Arl13b antibody image to the anti-FLAG antibody image, and FLAG staining intensities within those areas were assessed. Between 40 and 80 cilia were analyzed for each condition. To normalize ciliary FLAG-Gli2 levels with respect to compound-dependent changes in total FLAG-Gli2 levels, the absolute average intensities for each condition were divided by the fold change in FLAG-Gli2 levels, as determined by the quantitative immunoblotting described above. Quantification of ciliary FLAG-Gli1 levels was performed in an analogous manner. Since HPI-4 perturbs primary cilia formation, only Arl13b-positive structures that could be clearly identified as cilia were used for Gli protein quanitification in HPI-4-treated cells. To assess cytoplasmic microtubule structures in cells treated with the HPIs, NIH-3T3 cells were cultured on poly-D-lysine-coated 12-mm glass coverslip, treated with the HPIs, and fixed with 4% paraformalehyde as described above. In place of the methanol treatment, the cells were permeabilitized with PBS containing 0.1% Triton X-100 for 1 min. Washing, blocking, and antibody incubation steps were then conducted as before, using mouse anti-<-tubulin (DM1-A, Sigma, 1:2,000 in blocking buffer). Secondary antibody treatments, DAPI staining, mounting, and imaging were then conducted as described above.

[1] = C3H 10T1/2, Shh-induced differentiation, alkaline phosphatase, read-out: IC50 (uM) Shh/C3H10T[1/2] cells

T1 sequence (Q0VGT2 whole entry): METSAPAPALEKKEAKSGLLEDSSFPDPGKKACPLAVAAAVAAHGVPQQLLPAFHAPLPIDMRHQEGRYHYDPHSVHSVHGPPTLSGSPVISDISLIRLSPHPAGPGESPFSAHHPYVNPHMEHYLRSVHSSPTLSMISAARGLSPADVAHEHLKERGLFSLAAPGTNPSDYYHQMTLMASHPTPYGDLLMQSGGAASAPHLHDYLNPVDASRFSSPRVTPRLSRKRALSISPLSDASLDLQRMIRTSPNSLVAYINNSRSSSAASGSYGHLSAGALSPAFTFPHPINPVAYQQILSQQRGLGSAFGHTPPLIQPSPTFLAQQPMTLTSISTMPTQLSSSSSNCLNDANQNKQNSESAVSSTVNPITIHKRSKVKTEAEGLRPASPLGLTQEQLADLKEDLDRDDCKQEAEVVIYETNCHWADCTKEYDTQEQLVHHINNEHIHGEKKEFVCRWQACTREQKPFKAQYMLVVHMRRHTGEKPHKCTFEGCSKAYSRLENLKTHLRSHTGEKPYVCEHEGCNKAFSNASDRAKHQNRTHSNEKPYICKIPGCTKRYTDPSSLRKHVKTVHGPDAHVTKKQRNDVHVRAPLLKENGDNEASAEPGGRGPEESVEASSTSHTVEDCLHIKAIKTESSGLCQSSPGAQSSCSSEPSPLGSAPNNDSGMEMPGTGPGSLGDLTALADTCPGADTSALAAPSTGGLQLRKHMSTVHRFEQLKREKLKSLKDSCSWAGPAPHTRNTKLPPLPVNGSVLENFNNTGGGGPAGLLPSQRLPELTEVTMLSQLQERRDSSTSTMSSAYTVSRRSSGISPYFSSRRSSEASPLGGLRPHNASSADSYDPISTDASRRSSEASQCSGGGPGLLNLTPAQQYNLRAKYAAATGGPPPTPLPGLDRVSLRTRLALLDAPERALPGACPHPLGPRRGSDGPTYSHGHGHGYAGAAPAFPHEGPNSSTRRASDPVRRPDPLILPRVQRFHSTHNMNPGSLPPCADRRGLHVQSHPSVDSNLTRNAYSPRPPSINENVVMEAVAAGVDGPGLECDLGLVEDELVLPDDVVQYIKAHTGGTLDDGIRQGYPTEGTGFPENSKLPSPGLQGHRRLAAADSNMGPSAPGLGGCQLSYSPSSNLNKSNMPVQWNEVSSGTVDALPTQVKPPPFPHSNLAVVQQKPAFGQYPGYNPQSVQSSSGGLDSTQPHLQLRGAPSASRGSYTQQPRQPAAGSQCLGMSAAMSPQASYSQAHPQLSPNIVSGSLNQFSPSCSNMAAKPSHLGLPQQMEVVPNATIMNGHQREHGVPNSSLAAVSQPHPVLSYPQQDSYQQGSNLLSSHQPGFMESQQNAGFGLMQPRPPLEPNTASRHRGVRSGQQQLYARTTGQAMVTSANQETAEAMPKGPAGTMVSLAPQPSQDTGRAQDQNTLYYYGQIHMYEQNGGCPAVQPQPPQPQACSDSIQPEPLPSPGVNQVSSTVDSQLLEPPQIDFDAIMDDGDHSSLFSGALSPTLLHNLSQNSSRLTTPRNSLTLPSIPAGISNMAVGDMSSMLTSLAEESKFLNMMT

SMILES	IC50 (C3H10T(1/2) cells; [1]) [µM]	Microtubule disruption (NIH-3T3 cells)	IC50 (Gli2) [µM]	% Inhibition Su(fu)-/- MEFs (Hh pathway; 1440 min) [%]	further results
COCCOC(=O)C1=C(C)NC2=C(C(=O)CC(c3ccccc3OC)C2)C1c1cccc(O)c1 (mixture of isomers) [Compound 8, 4-(3-Hydroxy-phenyl)-7-(2-methoxy-phenyl)-2-methyl-5-oxo-1,4,5,6,7,8-hexahydro-quinoline-3-carboxylic acid 2-methoxy-ethyl ester]	0.4	No			Inhibition of Hh pathway activity induced by Gli2 overexpression (Gli2; listed as HPI-1): inhibit Gli-induced firefly luciferase expression in a dose-dependent manner; also recorded: inhibits; Repression of constitutive Hh pathway activity in Su(fu)-/- fibroblasts (Hh pathway): reduce Hh pathway activity in these cells to near-basal levels; % Inhibition Su(fu)-/- MEFs (Hh pathway): 80.2%
N#Cc1cc2c(nc1SCC(=O)Nc1nc3ccccc3s1)CCC2 [Compound 1]	0.9	No	3	95.2	
CCCCNC(=N)C(C)c1ccc(CC(C)C)cc1 (stereo not drawn) [Compound 2]	0.8	No	> 30	6.26	
Cc1cc(/C=c2\sc3nc4ccccc4n3c2=O)c(C)n1C(C)C [Compound 3]	0.9	No	2	92.8	
O=C(Nc1cccc2ccccc12)OC[C@@H]1CCCN2CCCC[C@H]12 [Compound 4]	0.8	No	> 30	−7.55	
CCC(C)NS(=O)(=O)c1ccc(Cc2ccc(S(=O)(=O)NC(C)CC)cc2)cc1 (stereo not drawn) [Compound 5]	0.9	No	10	45.7	
CCOC(=O)c1cc2c(=O)n3ccccc3nc2n(C(C)C)c1=NC(=O)c1cc(OC)cc(OC)c1 [Compound 6]	0.45	No	1.5	90	
CCN1CCCC1CNC(=O)C1CCN(c2nc3c(C)cc(C)cc3s2)CC1 (stereo not drawn) [Compound 7]	0.8	No	> 10	32.1	Toxicity noted in Gli2 Transfected column (Gli2): (Toxic at 30)
CCOC(=O)c1cn(-c2ccccc2)nc1-c1ccc(OC)c(OC)c1 [Compound 9]	0.8	No	> 30	−26.9	
O=S(=O)(Nc1cc(Cl)c(Cl)cc1Cl)c1ccc(F)cc1 [Compound 10]	4	No	4	81.8	
OCCNc1nc(N2CCN(c3ccccc3)CC2)nc2ccccc12 [Compound 11]	2	No	> 30	70.7	Inhibition of Hh pathway activity induced by Gli2 overexpression (Gli2; listed as HPI-3): no significant activity; also recorded: inactive
CC(C)(C)N(CCNS(=O)(=O)c1ccc(-c2cc(C(F)(F)F)no2)s1)Cc1ccco1 [Compound 12]	0.25	No	15		Toxicity noted in Su(fu)-/- MEFs (Hh pathway): Toxic at 20
CN1CCN(C2Cc3ccccc3Sc3ccccc32)CC1 (stereo not drawn) [Compound 13]	2.5	No	> 30		Toxicity noted in Su(fu)-/- MEFs (Hh pathway): Toxic at 15
CCOc1ccc2ncc(C(=O)c3ccc(C)cc3)c(N3CCCC3)c2c1 [Compound 14]		No	10	84.3	IC50 (C3H10T(1/2) cells; C3H 10T1/2, read-out: IC50 (uM) Shh/C3H10T[1/2] cells): 0.4 µM
O=C(Nc1nnc(S(=O)(=O)N2CCCCC2)s1)c1cccc(Br)c1 [Compound 15]	4	No	25	89.1	
CCOc1ccc(CCNc2cnnc3c(Cl)cccc23)cc1OCC [Compound 16]	0.2	No	> 30	62.1	
COc1ccc(OC)c2c1cc1n2CC(C)(C(=O)NC2CCCCCCC2)N(CCN(C)C)C1=O (stereo not drawn) [Compound 17]	2	No	6	89.1	Inhibition of Hh pathway activity induced by Gli2 overexpression (Gli2; listed as HPI-2): preferentially inhibits Gli2; Repression of constitutive Hh pathway activity in Su(fu)-/- fibroblasts (Hh pathway): reduce Hh pathway activity in these cells to near-basal levels
N#CC(C(=O)c1ccc(Cl)cc1Cl)=C1NC(=O)c2ccccc2N1 [Compound 18]	0.7	No	> 10	58.5	Inhibition of Hh pathway activity induced by Gli2 overexpression (Gli2; listed as HPI-4): no significant activity; also recorded: inactive
